# Assay results: patent US12544377B2, “Compounds, compositions and methods of treating or preventing acute lung injury” (Yale University, priority 2017, dated 2026)
# Entries after “also recorded” stand apart in the source; their conditions may differ.
# Tests used:
# LPS-induced lung injury = LPS-induced lung injury in mice; type: in vivo; settings: for difference between HS-DKO and WT control mice in permeability and edema, LPS-induced injury: mice fed diet containing BHA
# Protocol: Mice were anesthetized with ketamine/Xylazine (1 gm/kg and 100 mg/kg) and were allowed to inhaled 50 μl of LPS (1 mg/ml) placed as droplets on nares. Mice postures were maintained upright. Twenty-two hours after the induction of injury, 100 μl of FITC-labeled albumin (10 mg/ml) were injected via retro-orbital vein, and 24 hours after the induction of injury, mice were euthanized by exsanguination. To obtain bronchoalveolar lavage fluid, 1 ml of PBS was instilled into lungs and retrieved a via a tracheal catheter. In some experiments, mice were first fed with antioxidant BHA in food (Harlan Laboratory Services) for 7 days before the induction of lung injury.
# HCl-induced lung injury = assay: HCl (acid aspiration)-induced lung injury in mice; type: in vivo; settings: for HCl-induced acute lung injury / survival of mice: FIG. 15; for lung permeability, HCl-induced lung injury, preventative treatment: 1.5 mg/Kg intra-nasal 0.5 hour before HCl (0.05 M); for survival, HCl-induced lung injury, preventative treatment: 1.5 mg/Kg intra-nasal 0.5 hour before HCl (0.1 M); for pulmonary permeability, HCl-induced lung injury, treatment after injury: six hours after injury
# Protocol: Mice were anaesthetized by ketamine/Xylazine ([…] and 100 mg/kg) and were suspended vertically from their incisors on a custom-made mount for orotracheal instillation. A 22 G catheter (Jelco, Smiths Medical) was guided 1.5 cm below the vocal cords, and 2.5 μl/g of 0.05 M HCl was instilled. Two hours after the induction of injury, 100 μl of FITC-labeled albumin (10 mg/ml) was injected via retro-orbital vein. Measurements were made 6 hours after the induction of injury. Control animals received saline instead of HCl in the same manner. In survival experiments, mice received 2.5 μl/g of 0.1 M HCl orotracheally and the observation period was extended up to 30 h.
# [1] = system: bleomycin-induced lung fibrosis; assay: Bleomycin-induced lung fibrosis in mice (hydroxyproline levels); type: in vivo; settings: 0.05 unit bleomycin once, one week later 60 mg/kg orally for five days
# Text: A long detrimental effect of ALI is fibrosis. […] A bleomycin-induced lung fibrosis model was used in this study: Gan, et al., 2012, Nat. Cell Biol. 14:686.
# human neutrophils = assay: ROS production assay in human neutrophils stimulated with fMLP; settings: fMLP (100 nM), 20 nM pazopanib
# Protocol: One day after lung injury induction, lung permeability was determined. […] Six hours after lung injury induction, lung permeability (FIG. 12D) and histology (FIG. 12E) were examined. […] Data from one experiment are presented as mean±sem (Student t-Test, *p<0.05, n=5). […] Six hours after lung injury induction, lung permeability were examined. […] Data from one experiment are presented as mean±sem (Student t-Test, *p<0.05, n=5).
# [2] = system: p47phox Ser-208 phosphorylation in neutrophils; assay: Western analysis of fMLP-stimulated neutrophils (phospho-Ser-208 p47phox, MAP3K3 protein); settings: for p47phox phosphorylation at Ser-208 in neutrophils: pretreated 10 min before fMLP (1 μM), phospho-specific antibody
# Protocol: One day after lung injury induction, lung permeability (FIG. 5D) and histology (FIG. 5E) were examined. […] The C57Bl mice were treated as above and their survival was analyzed by the Mantel-Cox Log-Rank test.
# mouse neutrophils = assay: ROS release assay in mouse neutrophils stimulated with fMLP; settings: pretreated 10 min before fMLP (1 μM)
# Protocol: Mice were euthanized in a CO2 chamber according to approved protocol, bone marrow was harvested from long bones of the mice, red blood cells (RBCs) were lysed with ACK buffer (155 mM NH4Cl, 10 mM KHCO3 and 127 μM EDTA), the cells were layered on a discontinuous Percoll gradient composed of 81%, 62% and 45% Percoll layers, and the cells were isolated from the interphase between 81% and 62% Percoll layers. Cells were washed in HBSS and used for various assays.
# Neutrophils were suspended in a reaction mixture (0.25% BSA in HBSS with Ca^2+ and Mg^2+, 10 mM Isoluminol, 100 μ/ml HRP), distributed cells in the well of a 96 well plate, and stimulated with fMLP (10 μM). Isoluminol-enhanced chemiluminescence was recorded continuously in a plate reader (Perkin Elmer).
# [3] = 1.5 mg/Kg intra-nasal 1 h after HCl (0.05 M)
compound,measurement,setting,value
"NC1(c2ccc(-c3nc4ccn5c(=O)[nH]nc5c4cc3-c3ccccc3)cc2)CCC1 [MK-2206, 8-[4-(1-Aminocyclobutyl)phenyl]-9-phenyl-2H-[1,2,4]triazolo[3,4-f][1,6]naphthyridin-3-one]",effect of pazopanib on permeability in LPS-injured lungs in presence of AKT inhibitor,LPS-induced lung injury; MK-2206 10 mg/Kg with or without 60 mg/Kg/day pazopanib via gavage,abrogates the effect of pazopanib on permeability
"Avastin: Avastin, a VEGF inhibitor; described in b209 as a neutralizing anti-VEGFR antibody (FIG. 15)",HCl-induced acute lung injury / survival of mice,HCl-induced lung injury,limited effects
same,HCl-induced acute lung injury / survival of mice,HCl-induced lung injury; listed as neutralizing anti-VEGFR antibody,no effect in survival
"Cc1ccc(Nc2nccc(N(C)c3ccc4c(C)n(C)nc4c3)n2)cc1S(N)(=O)=O [pazopanib, 5-((4-((2,3-dimethyl-2H-indazol-6-yl)(methyl)amino)pyrimidin-2-yl)amino)-2-methylbenzenesulfonamide]",lung fibrosis (levels of hydroxyproline),[1],inhibits bleomycin-induced lung fibrosis
same,lung fibrosis (levels of hydroxyproline),[1]; listed as Pazopanib,inhibit lung fibrosis
same,"lung permeability, HCl-induced lung injury, preventative treatment",HCl-induced lung injury,pretreatment attenuates HCl-induced lung injury
same,"lung permeability, HCl-induced lung injury, preventative treatment",HCl-induced lung injury; listed as Pazopanib,effective in reduction of permeability
same,"survival, HCl-induced lung injury, preventative treatment",HCl-induced lung injury,pretreatment reduces mortality
same,"survival, HCl-induced lung injury, preventative treatment",HCl-induced lung injury; listed as Pazopanib,extending survival
same,"alveolar wall thickening and edema (histology), HCl-induced lung injury",HCl-induced lung injury; [3],decreased
same,"pulmonary permeability, HCl-induced lung injury, treatment after injury",HCl-induced lung injury; [3],decreased pulmonary permeability; also recorded: attenuates HCl-induced lung injury
same,"survival, HCl-induced lung injury, treatment after injury",HCl-induced lung injury; 2.5 mg/Kg intra-nasal 1 h after HCl (0.1 M),significantly extended the survival; also recorded: pazopanib treatment reduces mortality
same,"lung injury (permeability, survival) in mice lacking p47phox","HCl-induced lung injury; p47phox-deficient mice, FIGS. 16C & 16E",showed no effects; also recorded: abrogated the therapeutic effect of pazopanib
same,ROS production from human neutrophils,human neutrophils,increases ROS production from human neutrophils
same,increase in MAP3K3 protein content induced by fMLP,"[2]; neutrophils, fMLP",abrogated increase in MAP3K3 protein content
same,p47phox phosphorylation at Ser-208 in neutrophils,[2],inhibits phosphorylation of Ser-208
same,p47phox phosphorylation at Ser-208 in neutrophils,[2]; listed as Pazopanib,inhibit
same,"mortality, LPS-induced lung injury, therapeutic modality",LPS-induced lung injury; 1.5 mg/Kg intra-nasal 24 h after LPS,reduced mortality; also recorded: therapeutic treatment of pazopanib reduces mortality
same,"mortality, LPS-induced lung injury, prophylactic modality",LPS-induced lung injury; 60 mg/Kg/day via gavage two days before injury,reduces mortality
same,"lung injury in mice lacking MEKK2/3 (HS-DKO), LPS","LPS-induced lung injury; HS-DKO mice, 60 mg/Kg/day via gavage, FIGS. 12C-12D",no effects on lung injury
same,AKT phosphorylation in LPS-injured HS-DKO lungs,"LPS-induced lung injury; HS-DKO mice, FIG. 13E",little effect on AKT phosphorylation
same,"alveolar wall thickening and edema (histology), LPS-induced lung injury","LPS-induced lung injury; WT C57Bl mice, 60 mg/Kg/day via gavage from two days before LPS",reduced
same,"pulmonary permeability, LPS-induced lung injury","LPS-induced lung injury; WT C57Bl mice, 60 mg/Kg/day via gavage from two days before LPS, one day after injury, 60 mg/kg/day",reduced pulmonary permeability; also recorded: attenuates LPS-induced lung injury
same,AKT phosphorylation in LPS-injured lungs,"LPS-induced lung injury; WT mice, FIG. 13D",increased AKT phosphorylation
same,ROS production from WT mouse neutrophils,mouse neutrophils,led to increases in the ROS production; also recorded: increases ROS release from neutrophils
"Cc1ccc(NC(=O)c2ccc(CN3CCN(C)CC3)cc2)cc1Nc1nccc(-c2cccnc2)n1 [imatinib, 4-[(4-methylpiperazin-1-yl)methyl]-N-(4-methyl-3-{[4-(pyridin-3-yl)pyrimidin-2-yl]amino}phenyl)benzamide]","pulmonary permeability, HCl-induced lung injury, treatment after injury",HCl-induced lung injury; [3],ineffective in reducing lung permeability; also recorded: does not attenuate HCl-induced lung injury
same,"pulmonary permeability, HCl-induced lung injury, treatment after injury","HCl-induced lung injury; 1.5 mg/Kg intra-nasal 1 h after HCl (0.05 M), listed as Imatinib",trend of aggravation of the injury
"COc1ccc(O)c(C(C)(C)C)c1 [BHA, butylated hydroxyanisole]",pazopanib's effect on lung permeability in mice fed BHA,"LPS-induced lung injury; chew containing BHA, 60 mg/Kg/day pazopanib via gavage, LPS",abrogates pazopanib's effect on lung permeability
same,"difference between HS-DKO and WT control mice in permeability and edema, LPS-induced injury",LPS-induced lung injury,abrogates the difference
same,"difference between HS-DKO and WT control mice in permeability and edema, LPS-induced injury",LPS-induced lung injury; listed as butylated hydroxyanisole (BHA),dissipated
